Data set [1] can be described thus: Solubility in aqueous media containing surfactants such as Tween 80. The class given is physicochemical. To be noted: aqueous Tween 80.
Data set [2] deals with NCI-H524 (ATCC) human lung cancer cells. The class given is cell-based. The gist of the method:
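NCI-H524 cells at 5,000/well were exposed to conjugate for 2 h from 20 μM top dose (ten-point, three-fold dilutions), washed, then grown a further 70 h. For competition, cells were pretreated 30 min with 100 μM octreotide. CellTiter Glo readout; % inhibition vs vehicle; four-parameter IC50.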

For data set [3], the target named is T1, SSTR2 (Homo sapiens, UniProt P30874). Description: Radioligand-receptor binding assay, [125I] labeled somatostatin, membranes from SSTR2 expressing CHO-K1 cells. More on the design: host or cells: CHO-K1. As for the experimental part:
Two conjugates were assessed in an in vitro assay evaluating binding to the somatostatin receptor 2 (SSTR2). A radioligand-receptor binding assay was conducted at Eurofins Panlabs (Taiwan) to determine the affinity of conjugates described herein to the SSTR2. The assay measures binding of radiolabeled ligand, [^125I] labeled somatostatin, to human SSTR2 using membrane preparations from SSTR2 expressing CHO-K1 cells. Membranes were incubated with radiolabeled somatostatin (0.03 nM) in the presence of conjugate/compound starting at a dose of 10 uM using 6× serial dilutions to obtain a 10-pt curve. After a four-hour incubation, membranes were filtered and washed 3× and counted to determine the remaining [^125I] somatostatin bound to the receptor. IC50 values were determined by a non-linear, least squares regression analysis using MathIQ™ (ID Business Solutions Ltd., UK). The Ki values were calculated using the equation of Cheng and Prusoff (Cheng and Prusoff, Biochem. Pharmacol. 22: 3099-3108, 1973) using the observed IC50 of the tested conjugate/compound, the concentration of radioligand employed in the assay, and the historical values for the KD of the ligand obtained at Eurofins.

Data set [4] deals with T1, SSTR2. Description: PathHunter eXpress Activated GPCR Internalization agonist assay. The class given is cell-based. The arrangement: expressed in transfected cells. To be noted: receptor internalization, agonist dose response. How it is done:
Two conjugates were assessed in an in vitro assay evaluating SSTR2. The steps outlined below provide the assay volumes and procedure for performing agonist assays using the PathHunter eXpress Activated GPCR Internalization cells and PathHunter Detection Reagents generally according to the manufacturer's recommendations. GraphPad Prism® was used to plot the agonist dose response.

The subject of data set [5] is NCI-H69 SCLC (small cell lung cancer) tumors. The data set can be described thus: H69 tumor DM-1 levels by LC/MS-MS. To be noted: 24 hour time point; dosed at 1 mg/kg (conjugates, nanoparticles) or 0.4 mg/kg for DM-1. The class given is in vivo, mice. As for the experimental part: To examine the ability of conjugates of the present invention to accumulate in tumors, a murine cancer model was used. All mice were treated in accordance with the OLAW Public Health Service Policy on Human Care and Use of Laboratory Animals and the ILAR Guide for the Care and Use of Laboratory Animals. All in vivo studies were conducted following the protocols approved by the Blend Therapeutics Institutional Animal Care and Use Committee. Animals were inoculated with 2.5×10{circumflex over (0)}6 NCI-H69 SCLC (small cell lung cancer) cells in 1:1 RPMI 1640 (Invitrogen, Carlsbad, Calif.)/Matrigel® (BD Biosciences, San Jose, Calif.) via subcutaneous injection to the right flank. Tumors were allowed to reach an approximate volume of ˜500 mm3. Animals were then randomized into treatment groups of 3 animals per time point and were dosed at 1 mg/kg (10% propylene glycol in water for injection for free conjugates, or 10% sucrose for nanoparticles), or 0.4 mg/kg for DM-1 (10% propylene glycol in water for injection). The 24 hour time point was used as a benchmark across conjugates.
Tumor DM-1 levels were determined by liquid chromatography mass spectrometry (LC/MS-MS). Four volumes of 5 mM 6-maleimidohexanoic acid to 1 part tumor v/w was added and homogenized for about 10-15 seconds with a handheld homogenizer. 10 μL of 500 mM Tris(2-carboxyethyl)phosphine was added to 100 uL of tumor homogenate, mixed well and incubated at room temperature for about 5-15 min. 200-300 uL of acetonitrile was used to precipitate proteins in tumor homogenate, samples were centrifuged for 5 min, and supernatant was injected onto LC/MS-MS system for DM-1 analysis.

The test system of the next data set is human NCI-H69 SCLC. The data set can be described thus: Tumor growth of human NCI-H69 SCLC in mice. The class given is in vivo, NCR nude mice. To be noted: for tumor volume: Conjugate 10 and Conjugate 10 NP6 2 mg/kg, DM1 0.8 mg/kg, once weekly for two doses, up to 100 days, FIG. 4. How it is done:
Applicants assessed the activity of a conjugate and a nanoparticle formulation of the conjugate in vivo. In these experiments, the ability of compounds to affect the growth of human NCI-H69 SCLC was tested. For the in vivo study, 8 week old female NCR nude mice were inoculated subcutaneously into the right flank with 2 million cells in 1:1 RPMI 1640 (Invitrogen, Carlsbad, Calif.)/Matrigel® (BD Biosciences, San Jose, Calif.). Tumor measurements were taken twice weekly, using vernier calipers. Tumor volume was calculated using the formula: V=0.5×width×width×length.
When tumors approached a volume of 200 mm^3, mice were randomized into four groups of ten animals. Mice were treated with vehicle control (10% propylene glycol in water for injection), Conjugate 10 at 2 mg/kg (10% propylene glycol in water for injection), Conjugate 10 NP6 nanoparticle at 2 mg/kg (10% Sucrose), or DM1 at 0.8 mg/kg (10% propylene glycol in water for injection). Mice were dosed once weekly for two doses. Final tumor volumes were analyzed using with a one-way analysis of variance and Tukey multiple comparison test.
Tumor volume study was repeated with three doses for vehicle, Conjugate 10 (0.7 mg/kg each), and Conjugate 10 NP6 (0.7 mg/kg each). Tumor volumes were tracked for 30 days.

The test system of another data set is phospho-histone H3. The data set can be described thus: Phospho-histone H3 response in NCI-H69 tumors. The class given is in vivo. To be noted: FIG. 8.
The nature of data set [6]: Pharmacokinetics in rat plasma of Conjugate 10 and Conjugate 10 NP6. To be noted: in vivo. How it is done:
Pharmacokinetics studies in rat plasma were also carried out. AUC values were show in Table 16.

Setting [7] is: Table 6, treated 2 hours, further incubated 70 hours, read-out: H524 IC50.
[8] abbreviates: read-out: H524 IC50 + 100 μM octreotide, Table 6, with octreotide competition.
Setting [9] is: Table 15, treated 2 hours, further incubated 70 hours, read-out: H524 IC50.
Where [10] appears, read: read-out: H524 IC50+ 100 uM octreotide, Table 15, 100 μM octreotide for 30 min, then conjugate 2 hours, 70 hours incubation.

Where two headings read alike, the source gives them in different places.

T1 sequence (P30874 whole entry): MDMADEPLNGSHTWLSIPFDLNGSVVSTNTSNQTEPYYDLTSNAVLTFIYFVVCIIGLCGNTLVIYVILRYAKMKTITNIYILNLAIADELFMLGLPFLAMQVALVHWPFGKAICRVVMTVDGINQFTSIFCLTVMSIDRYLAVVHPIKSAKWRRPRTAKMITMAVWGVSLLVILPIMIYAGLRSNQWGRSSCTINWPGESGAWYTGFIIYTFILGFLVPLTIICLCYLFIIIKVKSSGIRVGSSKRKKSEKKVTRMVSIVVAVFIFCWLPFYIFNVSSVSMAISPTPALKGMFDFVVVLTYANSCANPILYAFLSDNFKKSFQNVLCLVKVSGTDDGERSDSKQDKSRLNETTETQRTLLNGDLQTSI

Broadly, the IC50 is the concentration at which inhibition is half-maximal. A word on the Ki: it is a measure of affinity in units of concentration, obtained from inhibition or displacement. Usually EC50 stands for the concentration that produces a half-maximal response. Lower therefore signals greater potency. For `CO[C@H]1C(=O)[C@]2(C)[C@@H](OC)C[C@H]3OC[C@@]3(OC(C)=O)[C@H]2[C@H](OC(=O)c2ccccc2)[C@]2(O)C[C@H](OC(=O)[C@H](OC(=O)OCCSSCCC(=O)N[C@H](Cc3ccccc3)C(=O)N[C@H]3CSSC[C@@H](C(=O)N[C@H](CO)[C@@H](C)O)NC(=O)[C@H]([C@@H](C)O)NC(=O)[C@H](CCCCN)NC(=O)[C@@H](Cc4c[nH]c5ccccc45)NC(=O)[C@H](Cc4ccccc4)NC3=O)[C@@H](NC(=O)OC(C)(C)C)c3ccccc3)C(C)=C1C2(C)C` [Conjugate 1], the “solubility in aqueous media containing surfactants such as Tween 80” value in data set [1] is “high solubility”. Moreover, the half-inhibitory concentration (IC50) in data set [2] (setting [7]) stood at 110 nM; in data set [2] (setting [8]), 146 nM. The Ki on SSTR2 [3] (read-out: SSTR2 Ki) is 0.8 nM. At SSTR2 [4], this molecule registered an EC50 of 4.4 nM.
The matching figures for `COc1cccc2c1C(=O)c1c(O)c3c(c(O)c1C2=O)C[C@@](O)(C(=O)COC(=O)CCCC(=O)N[C@H](Cc1ccccc1)C(=O)N[C@H]1CSSC[C@@H](C(=O)N[C@H](CO)[C@@H](C)O)NC(=O)[C@H]([C@@H](C)O)NC(=O)[C@H](CCCCN)NC(=O)[C@@H](Cc2c[nH]c4ccccc24)NC(=O)[C@H](Cc2ccccc2)NC1=O)C[C@@H]3O[C@H]1C[C@H](N)[C@H](O)[C@H](C)O1` [Conjugate 2]: “high solubility”, 2850 nM, 2940 nM, 0.24 nM and 35 nM.
By AUC(0-inf) is commonly meant the area under the concentration-time curve extrapolated to infinity. A high value points to high exposure. By clearance is commonly meant the rate of elimination divided by the concentration. Read a high clearance as efficient removal. With `COc1cc2cc(c1Cl)N(C)C(=O)C[C@H](OC(=O)[C@H](C)N(C)C(=O)CCSSCCC(=O)NCCCC[C@H]1C(=O)N[C@@H](Cc3ccc(O)cc3)C(=O)N[C@H](Cc3c[nH]c4ccccc34)C(=O)N[C@@H](CCCCN)C(=O)N[C@@H]([C@@H](C)O)C(=O)N[C@@H](Cc3ccccc3)C(=O)N1C)[C@]1(C)O[C@H]1[C@H](C)[C@@H]1C[C@@](O)(NC(=O)O1)[C@H](OC)/C=C/C=C(\C)C2` [Conjugate 10], the “H69 tumor DM-1 levels” value in data set [5] was 72.1 nM. Further, the IC50 in data set [2] (setting [9]) was 156 nM. Besides, the half-maximal inhibitory concentration (IC50) in data set [2] (setting [10]) was 625 nM. At SSTR2 [3], this molecule showed a Ki of 0.1 nM. In the data set on human NCI-H69 SCLC, the tumor volume entry was “initially provided tumor regression, but tumors regrew”. The “animals removed from the study due to large tumor size (tumor size less than 2000 mm^3 curve)” value with human NCI-H69 SCLC (out to 100 days, 2 mg/kg, two doses, FIG. 5) is “three”. Further, in the data set with phospho-histone H3, the “phospho-histone H3 response in NCI-H69 tumors after treatment” value is “Increase”. Moreover, the “phospho-histone H3 response at around 50 hour” value in the data set with phospho-histone H3 (around 50 hour) is on record as “started to decrease”. In data set [6], this molecule returned an area under the curve AUC(0-inf) of 0.377 µM·h and a clearance of 13 mL/min/kg.
Take `COc1cc2cc(c1Cl)N(C)C(=O)C[C@H](OC(=O)[C@H](C)N(C)C(=O)CCSSCCCN[C@H](Cc1ccccc1)C(=O)N[C@H]1CSSC[C@@H](C(=O)N[C@H](CO)[C@@H](C)O)NC(=O)[C@H]([C@@H](C)O)NC(=O)[C@H](CCCCN)NC(=O)[C@@H](Cc3c[nH]c4ccccc34)NC(=O)[C@H](Cc3ccccc3)NC1=O)[C@]1(C)O[C@H]1[C@H](C)[C@@H]1C[C@@](O)(NC(=O)O1)[C@H](OC)/C=C/C=C(\C)C2` [Conjugate 76]: the “H69 tumor DM-1 levels” value in data set [5] stood at 62.2 nM. The IC50 in data set [2] (setting [9]) amounted to 120 nM; in data set [2] (setting [10]) it was 768 nM. In addition, the Ki on SSTR2 [3] turned out to be 0.12 nM. Also, the EC50 on SSTR2 [4] amounted to 3 nM.
Take `COc1cc2cc(c1Cl)N(C)C(=O)C[C@H](OC(=O)[C@H](C)N(C)C(=O)CCS)[C@]1(C)O[C@H]1[C@H](C)[C@@H]1C[C@@](O)(NC(=O)O1)[C@H](OC)/C=C/C=C(\C)C2` [DM1, reference compound]: the tumor volume result in the data set with human NCI-H69 SCLC was “tumor volume increased rapidly”.

The values are drawn from patent US10322191B2, “Targeted conjugates and particles and formulations thereof” (TARVEDA THERAPEUTICS, INC., priority 2014, dated 2019).
